# Source: publication PMC11224357, “Green, facile synthesis and evaluation of unsymmetrical carbamide derivatives as antimicrobial and anticancer agents with mechanistic insights” (Scientific Reports, 2024)
# Columns and labels:
# Candida albicans [1] = experiment: Agar well diffusion; format: cell-based; settings: 20 µg/mL, read-out: Inhibition Zone
# Text: (§1) The antimicrobial efficiency of the synthesized unsymmetrical carbamide derivatives was screened using standard clinical pathogens derived from Department of Microbiology and Immunology, Faculty of Medicine (Boys), Al-Azhar University. The tested microbial pathogens used in this study were as follows, two Gram-positive bacteria (Bacillus subtilis, Staphylococcus aureus), two Gram-negative bacteria (Pseudomonas aerginousea, klebsiella pneumoniae) and two fungi (Candida albicans, Aspergillus fumgitus). Before each antimicrobial examination, pre-activation of each microbial pathogen was implemented using specific growth conditions. For bacterial ones, preinoculum was prepared using Nuitrent broth medium (Codalab, Spain) at 37 °C for 24 h. while the fungal pathogens were activated using Potato Dextrose broth (Codalab, Spain) at 28 °C for 48 h. Consequently, each tested pathogen justified its inoculum size based on Colony Forming Units (CFU) to be closed to […] during all antimicrobial tests.
# Aspergillus fumagitus [2] = experiment: Agar well diffusion; format: cell-based; settings: Aspergillus fumagitus; 20 µg/mL; read-out: Inhibition Zone
# Text: as §1
# Candida albicans [3] = experiment: MIC by microdilution (CLSI); format: cell-based; settings: read-out: Minimum inhibitory concentration (MIC)
# Description: (§2) For this purpose, serial dilution of the potent compounds was carried out to obtain the desired concentrations (i.e. 10–400 µg/mL). In brief, a defined weight for each selected compound was dissolved in dimethylsulphoxide (DMSO) and used as a stock solution[29]. The determination of the MIC value for each targeted compound was known as the lowest concentration of each sample that yielded a minimum number of colony-forming units (CFU) compared to the untreated samples[28].
# Aspergillus fumagitus [4] = experiment: MIC by microdilution (CLSI); format: cell-based; settings: read-out: Minimum inhibitory concentration (MIC)
# Description: as §2
# Pseudomonas aeruginosa [5] = experiment: MIC by microdilution (CLSI); format: cell-based; settings: read-out: Minimum inhibitory concentration (MIC)
# Description: (§3) In brief, a defined weight for each selected compound was dissolved in dimethylsulphoxide (DMSO) and used as a stock solution[29].
# Staphylococcus aureus [6] = experiment: MIC by microdilution (CLSI); format: cell-based; settings: read-out: Minimum inhibitory concentration (MIC)
# Description: as §3
# Klebsiella pneumonia [7] = experiment: MIC by microdilution (CLSI); format: cell-based; settings: Klebsiella pneumoniae, read-out: Minimum inhibitory concentration (MIC)
# Description: as §3
# Bacillus subtilis [8] = experiment: MIC by microdilution (CLSI); format: cell-based; settings: read-out: Minimum inhibitory concentration (MIC)
# Description: as §3
# Pseudomonas aeruginosa [9] = experiment: Agar well diffusion; format: cell-based; settings: 20 µg/mL, read-out: Inhibition Zone
# Text: as §1, with “For bacterial ones, preinoculum was prepared using Nuitrent broth medium (Codalab, Spain) at 37 °C for 24 h. while the fungal pathogens were activated using Potato Dextrose broth (Codalab, Spain) at 28 °C for 48 h.” left out
# Staphylococcus aureus [10] = experiment: Agar well diffusion; format: cell-based
# Text: as §1, with “For bacterial ones, preinoculum was prepared using Nuitrent broth medium (Codalab, Spain) at 37 °C for 24 h. while the fungal pathogens were activated using Potato Dextrose broth (Codalab, Spain) at 28 °C for 48 h.” left out
# Klebsiella pneumonia [11] = experiment: Agar well diffusion; format: cell-based; settings: Klebsiella pneumoniae; Klebsiella pneumonia; 20 µg/mL; read-out: Inhibition Zone
# Text: as §1, with “For bacterial ones, preinoculum was prepared using Nuitrent broth medium (Codalab, Spain) at 37 °C for 24 h. while the fungal pathogens were activated using Potato Dextrose broth (Codalab, Spain) at 28 °C for 48 h.” left out
# Bacillus subtilis [12] = experiment: Agar well diffusion; format: cell-based; settings: 20 µg/mL, read-out: Inhibition Zone
# Text: as §1, with “For bacterial ones, preinoculum was prepared using Nuitrent broth medium (Codalab, Spain) at 37 °C for 24 h. while the fungal pathogens were activated using Potato Dextrose broth (Codalab, Spain) at 28 °C for 48 h.” left out
# [13] = test system: HCT-116 (human colon cancer); experiment: MTT cytotoxicity assay; format: cell-based; settings: 48 h; for IC50: HCT-116, MTT; for cytotoxicity at 100 µM: HCT-116, single dose 100 µM, read-out: Cytotoxicity (%)
# Description: (§4) The MTT 3-(4,5-dimethylthiazol-2-yl)-2,5-diphenyl-tetrazolium bromide (Bio Basic Canada Inc. Toronto, Canada) assay was used to assess cell viability. The procedures were carried out in a biosafety class II sterile laminar air flow cabinet (Baker, SG403INT; Sanford, ME, USA). […] Cells were seeded at a density of (10^4 cells/well) into 96-well micro titer polypropylene plates and left to adhere for 24 h. The media was aspirated and the test chemicals were given to the cells in a single dose of 100 µM in DMSO. After 48 h of incubation, 40 µL of MTT salt ([…]) was applied to each well. […] Instead of the tested substances, the medium was applied to the untreated cells (negative control). […] The testing substance was dissolved in dimethylsulfoxide (DMSO), and its final concentration in the cells was less than 0.2%. The solvent concentration was the same for all medications and between the control and drug treatments at the same dilution.
# MTT cytotoxicity assay = format: cell-based, human; settings: human, BJ-1 normal skin fibroblast cells, BJ-1 normal cells
# Description: as §4
# [14] = test system: MCF-7 (human breast cancer); experiment: MTT cytotoxicity assay; format: cell-based; settings: Homo sapiens, MCF-7, 48 h; for IC50: MCF7, 48 h, MTT; for cytotoxicity at 100 µM: MCF7, single dose 100 µM, read-out: Cytotoxicity (%)
# Description: as §4, with “The media was aspirated and the test chemicals were given to the cells in a single dose of 100 µM in DMSO.” left out
# MCF-7 cells = experiment: Annexin V-FITC/PI necrosis cell apoptosis assay; format: cell-based, human; settings: % of population
# Description: (§5) The levels of necrosis and apoptosis in cells were determined by CytoFLEX Flow Cytometer. A total of 1 × 10^6 cells were washed in 1 × DPBS, and then were centrifuged at 500 × ϲ for 5 min. 1 μL of annexin V-FITC solution and 5 μL of dissolved PI were added to 100 μL of the cell suspensions that kept on ice and were incubated for 15 min in the dark. Cells were then analyzed by the CytoFLEX Flow Cytometer (Beckman Coulter Life Sciences, USA) and the percentage of apoptotic cells was determined using CytExpert Software.
# HCT-116 cells = experiment: Annexin V-FITC/PI necrosis cell apoptosis assay; format: cell-based, human; settings: % of population
# Description: as §5
Compound,zone of inhibition at 20 µg/mL (Candida albicans [1]),zone of inhibition at 20 µg/mL (Aspergillus fumagitus [2]),MIC (Candida albicans [3]),MIC (Aspergillus fumagitus [4]),zone of inhibition at 20 µg/mL (Pseudomonas aeruginosa [9]),zone of inhibition at 20 µg/mL (Staphylococcus aureus [10]),zone of inhibition at 20 µg/mL (Klebsiella pneumonia [11]),zone of inhibition at 20 µg/mL (Bacillus subtilis [12]),melting point,also measured
"C[C@@H]1[C@H](O)[C@@H](C)/C=C/C=C/C=C/C=C/C=C/C=C/C=C/[C@H](O[C@@H]2O[C@H](C)[C@@H](O)[C@H](N)[C@@H]2O)C[C@@H]2O[C@](O)(C[C@@H](O)C[C@@H](O)[C@H](O)CC[C@@H](O)C[C@@H](O)CC(=O)O[C@H]1C)C[C@H](O)[C@H]2C(=O)O [Amphotericin B, reference compound]",4 mm,5 mm,40 µg/mL,20 µg/mL,–,–,–,–,–,–
"CC1=C(C(=O)O)N2C(=O)[C@@H](NC(=O)[C@H](N)C3=CCC=CC3)[C@H]2SC1 [Cephradine, reference compound]",–,–,–,–,–,–,–,–,–,MIC (Pseudomonas aeruginosa [5]): > 400 µg/mL; MIC (Staphylococcus aureus [6]): > 400 µg/mL; MIC (Klebsiella pneumonia [7]): > 400 µg/mL; MIC (Bacillus subtilis [8]): 320 µg/mL
"Cc1ccc(S(=O)(=O)NC(=O)N2CCCC2)cc1 [Compound 9, N-tosylpyrrolidine-1-carboxamide]",–,2 mm,–,–,2 mm,4 mm,2 mm,6 mm,228 to 230 °C,–
"Cc1ccc(S(=O)(=O)NC(=O)N2CCOCC2)cc1 [Compound 10, N-tosylmorpholine-4-carboxamide]",–,2 mm,–,–,–,4 mm,2 mm,2 mm,210 to 211 °C,"IC50 [13]: 72.6 ± 0.13 µM; cytotoxicity at 100 µM [13]: ≥ 65%; cytotoxicity at 48 h, 100 µM (MTT cytotoxicity assay): 19.7%"
"Cc1ccc(S(=O)(=O)NC(=O)N2CCN(C)CC2)cc1 [Compound 11, 4-Methyl-N-tosylpiperazine-1-carboxamide]",–,–,–,–,–,2 mm,2 mm,–,190 to 192 °C,–
"Cc1ccc(S(=O)(=O)NC(=O)N2CCCCC2)cc1 [Compound 12, N-tosylpiperidine-1-carboxamide]",2 mm,–,–,–,–,3 mm,3 mm,–,232 to 235 °C,–
"Cc1ccc(S(=O)(=O)NC(=O)NC23CC4CC(CC(C4)C2)C3)cc1 [Compound 13, N-(adamantan-1-ylcarbamoyl)-4-methylbenzenesulfonamide]",3 mm,–,–,–,3 mm,2 mm,2 mm,6 mm,–,"IC50 [13]: 43.5 ± 0.15 µM; cytotoxicity at 100 µM [13]: ≥ 65%; cytotoxicity at 48 h, 100 µM (MTT cytotoxicity assay): 2.7%; IC50 [14]: 62.4 ± 0.128 µM; cytotoxicity at 100 µM [14]: ≥ 51%; early apoptosis (MCF-7 cells): 2.24%; late apoptosis (MCF-7 cells): 0.58%; early apoptosis (HCT-116 cells): 45.07%; late apoptosis (HCT-116 cells): 0.42%"
"Cc1ccc(NC(=O)N2CCCC2)cc1 [Compound 14, N-(p-tolyl)pyrrolidine-1-carboxamide]",8 mm,3 mm,–,–,–,3 mm,2 mm,4 mm,180 to 182 °C,–
"Cc1ccc(NC(=O)N2CCN(C)CC2)cc1 [Compound 16, 4-Methyl-N-(p-tolyl)piperazine-1-carboxamide]",5 mm,3 mm,10 µg/mL,80 µg/mL,3 mm,2 mm,5 mm,2 mm,252 to 253 °C,MIC (Pseudomonas aeruginosa [5]): 160 µg/mL; MIC (Staphylococcus aureus [6]): 320 µg/mL; MIC (Bacillus subtilis [8]): 160 µg/mL
"Cc1ccc(NC(=O)N2CCCCC2)cc1 [Compound 17, N-(p-tolyl)piperidine-1-carboxamide]",2 mm,3 mm,20 µg/mL,20 µg/mL,3 mm,2 mm,3 mm,5 mm,230 to 232 °C,MIC (Pseudomonas aeruginosa [5]): 40 µg/mL; MIC (Staphylococcus aureus [6]): 80 µg/mL; MIC (Klebsiella pneumonia [7]): 80 µg/mL; MIC (Bacillus subtilis [8]): 10 µg/mL
"Cc1ccc(NC(=O)NC23CC4CC(CC(C4)C2)C3)cc1 [Compound 18, 1-(Adamantan-1-yl)-3-(p-tolyl)urea]",2 mm,3 mm,–,–,–,–,–,2 mm,180 to 182 °C,–
"O=C(Nc1ccccc1)N1CCCC1 [Compound 19, N-phenylpyrrolidine-1-carboxamide]",4 mm,3 mm,10 µg/mL,40 µg/mL,2 mm,2 mm,4 mm,2 mm,233 to 235 °C,MIC (Pseudomonas aeruginosa [5]): 80 µg/mL; MIC (Staphylococcus aureus [6]): 160 µg/mL; MIC (Bacillus subtilis [8]): 80 µg/mL
"O=C(Nc1ccccc1)N1CCOCC1 [Compound 20, N-phenylmorpholine-4-carboxamide]",3 mm,2 mm,–,–,3 mm,–,4 mm,2 mm,–,–
"O=C(Nc1ccccc1)NC12CC3CC(CC(C3)C1)C2 [Compound 23, 1-(Adamantan-1-yl)-3-phenylurea]",3 mm,–,–,–,–,2 mm,2 mm,3 mm,–,IC50 [14]: 68.6 ± 0.116 µM; cytotoxicity at 100 µM [14]: ≥ 51%
"COc1cccc2c1C(=O)c1c(O)c3c(c(O)c1C2=O)C[C@@](O)(C(=O)CO)C[C@@H]3O[C@H]1C[C@H](N)[C@H](O)[C@H](C)O1 [Doxorubicin, doxorubicin, reference compound]",–,–,–,–,–,–,–,–,–,IC50 [13]: 65.1 ± 0.141 µM; IC50 [14]: 45 ± 0.123 µM
"OC(Cn1cncn1)(Cn1cncn1)c1ccc(F)cc1F [Fluconazole, reference compound]",–,–,> 400 µg/mL,> 400 µg/mL,–,–,–,–,–,–
